Assay results: article PMC9788584, “Quinoxalinones as A Novel Inhibitor Scaffold for EGFR (L858R/T790M/C797S) Tyrosine Kinase: Molecular Docking, Biological Evaluations, and Computational Insights” (Molecules, 2022)
Read-outs that look alike come from different tables or passages of the source.

Assays:
[1] = biological target: EGFR (L858R/T790M/C797S) TK (Homo sapiens, UniProt P00533, C797S/L858R/T790M); experiment: ADP-Glo kinase assay, EGFR tyrosine kinase inhibition; format: biochemical
Description: The inhibitory activity of each candidate compound towards EGFR triple mutations was performed using the luminescent ADP-Glo™ kinase assay (Promega Corporation, Madison, WI, USA) as previously described. […] Subsequently, 10 μL of kinase detection reagent was added and incubated at room temperature for 30 min to convert ADP into ATP. The generated luminescence by ATP in a luciferase reaction was then measured using a microplate reader (Infinite M200 microplate reader, Tecan, Männedorf, Switzerland), which corresponds to kinase activity. All assays were performed in triplicate and the obtained data were represented as the relative inhibition (%) of inhibitors compared to the control with no inhibitor as shown in Equation (1); (1) % relative inhibition=positive−negative−sample−negative/positive−negative×100

[2] = tested on: H1975 lung cancer cells expressing L858R/T790M EGFR; experiment: MTT cytotoxicity assay on H1975 cells; format: cell-based, Human; details: read-out: IC50, cytotoxic effect on H1975 cell viability
Description: Both cells were maintained to grow at 37 °C in a humidified 5% CO2 atmosphere.
The studied cell lines were seeded into 96-well plates (cell density of 6000 cells/well) and were incubated overnight. […] After incubation, the effect of compounds on cell viability was measured using the MTT assay as follows: 10 μL of MTT solution (5 mg/mL) was added and then incubated for 3 h. The medium was removed, followed by adding 50 μL of DMSO to dissolve the crystal formazan product. The purple solution of crystal formazan was then measured at 570 nm using a microplate spectrophotometer (Infinite M200 microplate reader, Tecan, Männedorf, Switzerland). The complete medium with 1.0% DMSO (no inhibitor) was used as a control in accordance with the reaction containing 1.0% DMSO of all wells.

[3] = MTT cytotoxicity assay on Vero cells; details: monkey, Vero cells (normal kidney epithelial cell line), IC50, cytotoxic effect on Vero cell viability
Description: (§1) Human NSCLC cell lines, H1975 (ATCC CRL-5908) and monkey’s normal kidney epithelial cell line (Vero, ATCC CCL-81) were purchased from American Type Culture Collection (ATCC, Manassas, VA, USA). H1975 cells were grown in RPMI-1640 medium supplemented with 10% FBS, 100 U/mL penicillin, and 100 µg/mL streptomycin. Vero cells were grown in Dulbecco’s modified Eagle’s minimal essential medium (DMEM; Gibco, Grand Island, NY, USA) containing 10% fetal bovine serum (FBS; Gibco), 100 U/mL penicillin, and 100 µg/mL streptomycin (Gibco). Both cells were maintained to grow at 37 °C in a humidified 5% CO2 atmosphere.
(§2) The studied cell lines were seeded into 96-well plates (cell density of 6000 cells/well) and were incubated overnight. Then, cells were treated with screened compounds and the known drug with various concentrations (125, 62.5, 31.25, 15.63, 7.81, 3.91, 1.95, and 0.98 μM) for 72 h. After incubation, the effect of compounds on cell viability was measured using the MTT assay as follows: 10 μL of MTT solution (5 mg/mL) was added and then incubated for 3 h. The medium was removed, followed by adding 50 μL of DMSO to dissolve the crystal formazan product. The purple solution of crystal formazan was then measured at 570 nm using a microplate spectrophotometer (Infinite M200 microplate reader, Tecan, Männedorf, Switzerland). The complete medium with 1.0% DMSO (no inhibitor) was used as a control in accordance with the reaction containing 1.0% DMSO of all wells.

[4] = tested on: Vero normal kidney cells; experiment: MTT cytotoxicity assay on Vero cells; details: read-out: IC50, cytotoxic effect on Vero cell viability, 72 h
Description: as §1, §2

[5] = in vitro; details: monkey, IC50, cytotoxic effect on Vero cell viability
Description: as §1, §2

[6] = enzyme-based assay, mean ± SEM, triplicate, read-out: IC50, kinase inhibitory activity against EGFR (L858R/T790M/C797S)
[7] = Homo sapiens, NCI-H1975, MTT, 72 h

EGFR (L858R/T790M/C797S) TK, sequence (P00533 25-1210 T790M/C797S/L858R): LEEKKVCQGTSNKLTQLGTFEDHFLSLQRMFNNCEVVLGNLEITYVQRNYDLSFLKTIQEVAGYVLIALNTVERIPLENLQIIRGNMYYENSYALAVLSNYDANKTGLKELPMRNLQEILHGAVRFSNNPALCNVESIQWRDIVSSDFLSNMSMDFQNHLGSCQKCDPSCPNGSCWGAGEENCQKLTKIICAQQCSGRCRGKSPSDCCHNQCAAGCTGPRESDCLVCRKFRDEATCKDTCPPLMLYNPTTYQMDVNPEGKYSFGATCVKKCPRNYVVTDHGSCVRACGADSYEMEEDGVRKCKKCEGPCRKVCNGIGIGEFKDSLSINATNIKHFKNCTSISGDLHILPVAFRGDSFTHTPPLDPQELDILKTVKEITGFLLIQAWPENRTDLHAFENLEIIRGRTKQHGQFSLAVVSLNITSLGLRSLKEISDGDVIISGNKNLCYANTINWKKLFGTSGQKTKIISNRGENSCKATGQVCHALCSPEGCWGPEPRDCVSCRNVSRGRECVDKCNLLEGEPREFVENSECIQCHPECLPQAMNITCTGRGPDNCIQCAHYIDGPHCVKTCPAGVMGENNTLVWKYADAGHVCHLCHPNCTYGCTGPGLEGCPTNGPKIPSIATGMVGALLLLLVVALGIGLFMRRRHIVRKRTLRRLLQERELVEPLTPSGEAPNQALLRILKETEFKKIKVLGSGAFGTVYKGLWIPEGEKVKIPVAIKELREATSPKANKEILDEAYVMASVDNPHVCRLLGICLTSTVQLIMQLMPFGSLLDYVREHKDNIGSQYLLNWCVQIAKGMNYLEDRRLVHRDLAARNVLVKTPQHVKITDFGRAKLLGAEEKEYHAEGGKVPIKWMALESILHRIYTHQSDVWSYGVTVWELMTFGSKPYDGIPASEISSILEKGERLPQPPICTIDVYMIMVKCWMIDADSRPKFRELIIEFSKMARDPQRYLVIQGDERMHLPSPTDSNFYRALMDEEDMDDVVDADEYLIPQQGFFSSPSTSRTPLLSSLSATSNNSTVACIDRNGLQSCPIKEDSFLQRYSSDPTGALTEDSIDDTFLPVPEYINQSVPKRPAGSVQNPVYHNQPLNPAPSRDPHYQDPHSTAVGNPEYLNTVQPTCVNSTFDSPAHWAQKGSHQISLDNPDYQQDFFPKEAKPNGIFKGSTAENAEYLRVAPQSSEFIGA

Compound: O=c1c(-n2cncn2)nc2ccccc2n1Cc1ccccc1 [CPD4]
- IC50 [1, 6]: 0.00304 ± 0.00124 µM
- IC50 [2, 7]: 3.47 ± 2.2 µM
- IC50 at 72 h [3]: > 20 µM

Compound: CCn1c(=O)c(-n2cnc3ccccc32)nc2ccccc21 [CPD15]
- IC50 [1]: 0.0065 ± 0.00302 µM
- IC50 ([2]; MTT, 72 h): 31.2 ± 3.4 µM
- IC50 [4]: > 50 µM
- IC50 at 72 h [3]: > 100 µM

Compound: O=c1[nH]c2ccccc2nc1OCc1ccccc1 [CPD16]
- IC50 [1, 6]: 0.0105 ± 0.0011 µM
- IC50 [2, 7]: 79.4 ± 4.35 µM
- IC50 at 72 h [3]: > 100 µM

Compound: CCOc1nc2ccccc2n(Cc2ccccc2)c1=O [CPD21, 1-Benzyl-3-ethoxyquinoxalin-2(1H)-one]
- IC50 [1, 6]: 0.00381 ± 0.0018 µM
- IC50 [2, 7]: 44.7 ± 2.34 µM
- IC50 at 72 h [3]: > 100 µM

Compound: C=CC(=O)Nc1cc(Nc2nccc(-c3cn(C)c4ccccc34)n2)c(OC)cc1N(C)CCN(C)C [Osimertinib, reference compound]
- IC50 ([2]; Homo sapiens, NCI-H1975, 72 h): 18.3 ± 2.02 µM
- IC50 at 72 h [5]: > 100 µM
